Assay results as given in patent US20260035359A1, “HERBICIDAL IMIDAZOLE COMPOUNDS” (SYNGENTA CROP PROTECTION AG, priority 2022, published 2026).

Assays:
Type in all cases: in vivo
[1] = system: Amaranthus pa/meri (AMAPA); test: Post-emergence herbicidal glasshouse test; details: 250 g/ha, sprayed after 8 days cultivation, evaluated after 13 days
Experimental: (§1) Seeds of a variety of test species are sown in standard soil in pots Amaranthus pa/meri (AMAPA), Amaranthus retoflexus (AMARE), Echinochloa crus-gali (ECHCG), Ipomoea hederacea (IPOHE), Setaria faberi (SETFA). After cultivation for one day (pre-emergence) or after 8 days cultivation (post-emergence) under controlled conditions in a glasshouse (at 24/16° C., day/night; 14 hours light; 65% humidity), the plants are sprayed with an aqueous spray solution derived from the formulation of the technical active ingredient in acetone/water (50:50) solution containing 0.5% Tween 20 (polyoxyethelyene sorbitan monolaurate, CAS RN 9005-64-5). Compounds are applied at 250 g/ha unless otherwise stated. The test plants are then grown in a glasshouse under controlled conditions in a glasshouse (at 24/16° C., day/night; 14 hours light; 65% humidity) and watered twice daily. After 13 days for pre and post-emergence, the test is evaluated for the percentage damage caused to the plant. The biological activities are shown in the following table on a five-point scale (5=81-100%; 4=61-80%; 3=41-60%; 2=21-40%; 1=0-20%).

[2] = system: Amaranthus retoflexus (AMARE); test: Post-emergence herbicidal glasshouse test; details: 250 g/ha, sprayed after 8 days cultivation, evaluated after 13 days
Experimental: as §1

[3] = system: Echinochloa crus-gali (ECHCG); test: Post-emergence herbicidal glasshouse test; details: 250 g/ha, sprayed after 8 days cultivation, evaluated after 13 days
Experimental: as §1

[4] = system: Ipomoea hederacea (IPOHE); test: Post-emergence herbicidal glasshouse test; details: 250 g/ha, sprayed after 8 days cultivation, evaluated after 13 days
Experimental: as §1

Setaria faberi (SETFA) [5] = test: Post-emergence herbicidal glasshouse test; details: 250 g/ha, sprayed after 8 days cultivation, evaluated after 13 days
Experimental: as §1

[6] = system: Amaranthus pa/meri (AMAPA); test: Pre-emergence herbicidal glasshouse test; details: 250 g/ha, sprayed after one day cultivation, evaluated after 13 days
Experimental: as §1

[7] = system: Amaranthus retoflexus (AMARE); test: Pre-emergence herbicidal glasshouse test; details: 250 g/ha, sprayed after one day cultivation, evaluated after 13 days
Experimental: as §1

[8] = system: Echinochloa crus-gali (ECHCG); test: Pre-emergence herbicidal glasshouse test; details: 250 g/ha, sprayed after one day cultivation, evaluated after 13 days
Experimental: as §1

[9] = system: Ipomoea hederacea (IPOHE); test: Pre-emergence herbicidal glasshouse test; details: 250 g/ha, sprayed after one day cultivation, evaluated after 13 days
Experimental: as §1

Setaria faberi (SETFA) [10] = test: Pre-emergence herbicidal glasshouse test; details: 250 g/ha, sprayed after one day cultivation, evaluated after 13 days
Experimental: as §1

Row | Compound | percentage damage caused to the plant, AMAPA [1] | percentage damage caused to the plant, AMARE [2] | percentage damage caused to the plant, ECHCG [3] | percentage damage caused to the plant, IPOHE [4] | percentage damage caused to the plant, SETFA (Setaria faberi (SETFA) [5]) | percentage damage caused to the plant, AMAPA [6] | percentage damage caused to the plant, AMARE [7] | percentage damage caused to the plant, ECHCG [8] | percentage damage caused to the plant, IPOHE [9] | percentage damage caused to the plant, SETFA (Setaria faberi (SETFA) [10])
1 | FC(F)c1ccn(CCc2nc(C(F)(F)F)cn2Cc2ncc(Cl)cn2)n1 [Compound 1.032] | 4 (4=61-80%) | 5 (5=81-100%) | 3 (3=41-60%) | 4 (4=61-80%) | 3 (3=41-60%) | 5 (5=81-100%) | 5 (5=81-100%) | 5 (5=81-100%) | 5 (5=81-100%) | 5 (5=81-100%)
2 | C#Cc1nc(C(F)(F)F)cn1Cc1ncc(Cl)cn1 [Compound 1.084] | 2 (2=21-40%) | 2 (2=21-40%) | 1 (1=0-20%) | 1 (1=0-20%) | 1 (1=0-20%) | 1 (1=0-20%) | 2 (2=21-40%) | 1 (1=0-20%) | 1 (1=0-20%) | 1 (1=0-20%)
3 | CCCCc1nc(I)c(I)n1Cc1ncc(Cl)cn1 [Compound 1.078] | 2 (2=21-40%) | 2 (2=21-40%) | 1 (1=0-20%) | 1 (1=0-20%) | – | 1 (1=0-20%) | 1 (1=0-20%) | 1 (1=0-20%) | 1 (1=0-20%) | –
4 | FC(F)(F)c1cn(Cc2ncc(Cl)cn2)c(CCC=NOCC2CC2)n1 (single isomer, unassigned) [Compound 1.006] | 3 (3=41-60%) | 3 (3=41-60%) | 1 (1=0-20%) | 2 (2=21-40%) | – | 2 (2=21-40%) | 5 (5=81-100%) | 1 (1=0-20%) | 1 (1=0-20%) | –
5 | CCCCc1nc(C(F)(F)F)cn1Cc1ccc(Cl)cn1 [Compound 1.057] | 2 (2=21-40%) | 3 (3=41-60%) | 1 (1=0-20%) | 2 (2=21-40%) | – | 5 (5=81-100%) | 3 (3=41-60%) | 1 (1=0-20%) | 1 (1=0-20%) | –
6 | FC(F)c1cn(Cc2ncc(Cl)cn2)c(SCCC(F)(F)F)n1 [Compound 1.012] | 1 (1=0-20%) | 1 (1=0-20%) | 1 (1=0-20%) | 2 (2=21-40%) | – | 1 (1=0-20%) | 1 (1=0-20%) | 1 (1=0-20%) | 1 (1=0-20%) | –
7 | COCCc1nc(C(F)(F)F)cn1Cc1ncc(Cl)cn1 [Compound 1.018] | 2 (2=21-40%) | 2 (2=21-40%) | 1 (1=0-20%) | 3 (3=41-60%) | – | 4 (4=61-80%) | 5 (5=81-100%) | 1 (1=0-20%) | 4 (4=61-80%) | –
8 | FC(F)COCCc1nc(C(F)(F)F)cn1Cc1ncc(Cl)cn1 [Compound 1.017] | 4 (4=61-80%) | 4 (4=61-80%) | 3 (3=41-60%) | 4 (4=61-80%) | – | 5 (5=81-100%) | 5 (5=81-100%) | 5 (5=81-100%) | 5 (5=81-100%) | –
9 | CCCCCc1nc(C(F)(F)F)cn1Cc1ncc(Cl)cn1 [Compound 1.019] | 2 (2=21-40%) | 2 (2=21-40%) | 3 (3=41-60%) | 1 (1=0-20%) | – | 5 (5=81-100%) | 5 (5=81-100%) | 5 (5=81-100%) | 1 (1=0-20%) | –
10 | CCCCc1nc(C(F)(F)F)cn1Cc1ccc(Cl)cn1 [Compound 1.055] | 1 (1=0-20%) | 1 (1=0-20%) | 1 (1=0-20%) | 1 (1=0-20%) | – | 1 (1=0-20%) | 1 (1=0-20%) | 1 (1=0-20%) | 3 (3=41-60%) | –
11 | ON=CCCc1nc(C(F)(F)F)cn1Cc1ncc(Cl)cn1 (single isomer, unassigned) [Compound 1.005] | 3 (3=41-60%) | 3 (3=41-60%) | 1 (1=0-20%) | 2 (2=21-40%) | – | 1 (1=0-20%) | 1 (1=0-20%) | 1 (1=0-20%) | 1 (1=0-20%) | –
12 | O=S(=O)(CCC(F)(F)F)c1nc(C(F)F)cn1Cc1ncc(Cl)cn1 [Compound 1.009] | 1 (1=0-20%) | 1 (1=0-20%) | 1 (1=0-20%) | 1 (1=0-20%) | – | 1 (1=0-20%) | 1 (1=0-20%) | 1 (1=0-20%) | 2 (2=21-40%) | –
13 | FC(F)(F)c1cn(Cc2ncc(Cl)cn2)c(CC2CCOCC2)n1 [Compound 1.075] | 4 (4=61-80%) | 4 (4=61-80%) | 4 (4=61-80%) | 4 (4=61-80%) | – | 5 (5=81-100%) | 5 (5=81-100%) | 4 (4=61-80%) | 5 (5=81-100%) | –
14 | N#CCCc1nc(C(F)(F)F)cn1Cc1ncc(Cl)cn1 [Compound 1.029] | 4 (4=61-80%) | 4 (4=61-80%) | 1 (1=0-20%) | 3 (3=41-60%) | – | 5 (5=81-100%) | 5 (5=81-100%) | 2 (2=21-40%) | 5 (5=81-100%) | –
